In patent US9884063B2, “Amido-substituted azole compounds” (Bayer Pharma Aktiengesellschaft, priority 2014, dated 2018):

Tests used:
[1] = test system: HEK293 FOP control reporter cell line; assay: HEK293 FOP Assay (FOP control vector luciferase reporter); format: cell-based; conditions: Homo sapiens; HEK293 FOP control reporter cell line, 16 hours incubation, compound dilution series 50 μM to 15 nM
Experimental: In a parallel approach, HEK293 cells were cotransfected with the FOP control vector and pcDNA3. The FOP vector is identical to the TOP construct, but it contains instead of functional TCF elements a randomized, non-functional sequence. For this transfection a stable transfected cell line was generated as well, based on selection with Geneticin (1 mg/ml).
In preparation of the assay, the two cell lines were plated 24 hrs before beginning the test at 10000 cells per well in a 384 micro titre plate (MTP) in 30 μl growth medium. […] The recombinant human Wnt-3a was thereby applied between 2500 and 5 ng/ml in two-fold dilution steps.
Selective inhibitory activity for small molecules on the wildtype Wnt pathway was determined after parallel incubation of both (TOP and FOP) HEK293 reporter cell lines with a compound dilution series from 50 μM to 15 nM in steps of 3.16-fold dilutions in CAFTY buffer (130 mM sodium chloride, 5 mM potassium chloride, 20 mM HEPES, 1 mM magnesium chloride, 5 mM sodium bicarbonate, pH 7.4) containing 2 mM Ca^2+ and 0.01% BSA.
The compounds were thereby serially prediluted in 100% DMSO and thereafter 50 fold into the CAFTY compound dilution buffer (described above).

[2] = test system: wildtype Wnt signaling cascade; assay: HEK293 TOP Assay (Super TopFlash luciferase reporter, Wnt-3a stimulated); format: cell-based; conditions: Homo sapiens, HEK293, 16 h, HEK293 TOP reporter cell line, Wnt-3a at EC50, 16 hours incubation, compound dilution series 50 μM to 15 nM
Method in brief: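 HEK293 cells stably carrying Super TopFlash (TOP) or FOP reporter, stimulated with recombinant human Wnt-3a (2500–5 ng/ml, two-fold steps). Both lines incubated in parallel with compound from 50 μM to 15 nM (3.16-fold) in CAFTY buffer pH 7.4 with 2 mM Ca2+ and 0.01% BSA; selectivity judged TOP vs FOP.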

## CC(C)[C@@H](C)NC(=O)c1[nH]cnc1C(=O)Nc1ccc(NC(=O)c2ccc(F)cc2)cc1 [Example 135, N^4-{4-[(4-fluorobenzoyl)amino]phenyl}-N^5-[(2R)-3-methylbutan-2-yl]-1H-imidazole-4,5-dicarboxamide]
[1]
  IC50: 22 µM
[2]
  IC50: 7.25 µM

## CCNC(=O)c1[nH]cnc1C(=O)Nc1ccc(NC(=O)c2ccc(F)cc2)cc1 [Example 137, N^5-ethyl-N^4-{4-[(4-fluorobenzoyl)amino]phenyl}-1H-imidazole-4,5-dicarboxamide]
[1]
  IC50: 8 µM
[2]
  IC50: 2.35 µM

## CC(C)(C)CNC(=O)c1[nH]cnc1C(=O)Nc1ccc(NC(=O)c2ccc(F)cc2)cc1 [Example 149, N^5-(2,2-dimethylpropyl)-N^4-{4-[(4-fluorobenzoyl)amino]phenyl}-1H-imidazole-4,5-dicarboxamide]
[1]
  IC50: 22 µM
[2]
  IC50: 5.2 µM

## O=C(Nc1ccc(NC(=O)c2nc[nH]c2C(=O)NCCN2CCCC(O)C2)cc1)c1ccccc1Cl (centres unmarked) [Example 152, N^4-{4-[(2-chlorobenzoyl)amino]phenyl}-N^5-{2-[3-hydroxypiperidin-1-yl]ethyl}-1H-imidazole-4,5-dicarboxamide]
[1]
  IC50: 30 µM
[2]
  IC50: 0.46 µM

## CC(C)(CN1CCCCC1)NC(=O)c1[nH]cnc1C(=O)Nc1ccc(NC(=O)c2ccc(F)cc2)cc1 [Example 156, N^4-{4-[(4-fluorobenzoyl)amino]phenyl}-N^5-[2-methyl-1-(piperidin-1-yl)propan-2-yl]-1H-imidazole-4,5-dicarboxamide]
[1]
  IC50: 15 µM
[2]
  IC50: 2.5 µM

## CC1CCN(CC(C)(C)NC(=O)c2[nH]cnc2C(=O)Nc2ccc(NC(=O)c3ccccc3Cl)cc2)CC1 [Example 158, N^4-{4-[(2-chlorobenzoyl)amino]phenyl}-N^5-[2-methyl-1-(4-methylpiperidin-1-yl)propan-2-yl]-1H-imidazole-4,5-dicarboxamide]
[1]
  IC50: 29 µM
[2]
  IC50: 1.2 µM

## O=C(Nc1ccc(NC(=O)c2nc[nH]c2C(=O)NCCN2CCCC(O)C2)cc1)c1ccc(F)cc1 (centres unmarked) [Example 167, N^4-{4-[(4-fluorobenzoyl)amino]phenyl}-N^5-[2-(3-hydroxypiperidin-1-yl)ethyl]-1H-imidazole-4,5-dicarboxamide]
[1]
  IC50: 44 µM
[2]
  IC50: 1.45 µM

## CC1CCN(CC(C)(C)NC(=O)c2[nH]cnc2C(=O)Nc2ccc(NC(=O)c3ccc(F)cc3)cc2)CC1 [Example 175, N^4-{4-[(4-fluorobenzoyl)amino]phenyl}-N^5-[2-methyl-1-(4-methylpiperidin-1-yl)propan-2-yl]-1H-imidazole-4,5-dicarboxamide]
[1]
  IC50: 27 µM
[2]
  IC50: 3.5 µM

## CN1CCN(NC(=O)c2[nH]cnc2C(=O)Nc2ccc(NC(=O)c3ccc(F)cc3Cl)cc2)CC1 [Example 177, N^4-{4-[(2-chloro-4-fluorobenzoyl)amino]phenyl}-N^5-(4-methylpiperazin-1-yl)-1H-imidazole-4,5-dicarboxamide]
[1]
  IC50: 17 µM
[2]
  IC50: 0.63 µM

## CC(CNC(=O)c1[nH]cnc1C(=O)Nc1ccc(NC(=O)c2ccc(F)cc2)cc1)N1CCCCC1 (centres unmarked) [Example 183, N^4-{4-[(4-fluorobenzoyl)amino]phenyl}-N^5-[2-(piperidin-1-yl)propyl]-1H-imidazole-4,5-dicarboxamide]
[1]
  IC50: 28 µM
[2]
  IC50: 0.68 µM

## CC(CNC(=O)c1[nH]cnc1C(=O)Nc1ccc(NC(=O)c2ccccc2Cl)cc1)N1CCN(C)CC1 (centres unmarked) [Example 186, N^4-{4-[(2-chlorobenzoyl)amino]phenyl}-N^5-[2-(4-methylpiperazin-1-yl)propyl]-1H-imidazole-4,5-dicarboxamide]
[1]
  IC50: 28 µM
[2]
  IC50: 0.42 µM

## CN1CCN(C(C)(C)CNC(=O)c2[nH]cnc2C(=O)Nc2ccc(NC(=O)c3ccc(F)cc3)cc2)CC1 [Example 188, N^4-{4-[(4-fluorobenzoyl)amino]phenyl}-N^5-[2-methyl-2-(4-methylpiperazin-1-yl)propyl]-1H-imidazole-4,5-dicarboxamide]
[1]
  IC50: 15 µM
[2]
  IC50: 5.9 µM

## CN1CCN(CC(C)(C)NC(=O)c2[nH]cnc2C(=O)Nc2ccc(NC(=O)c3ccc(F)cc3Cl)cc2)CC1 [Example 194, N^4-{4-[(2-chloro-4-fluorobenzoyl)amino]phenyl}-N^5-[2-methyl-1-(4-methylpiperazin-1-yl)propan-2-yl]-1H-imidazole-4,5-dicarboxamide]
[1]
  IC50: 2.3 µM
[2]
  IC50: 0.41 µM

## CN1CCN(CC(C)(C)NC(=O)c2[nH]cnc2C(=O)Nc2ccc(NC(=O)c3ccc(F)cc3)cc2)CC1 [Example 195, N^4-{4-[(4-fluorobenzoyl)amino]phenyl}-N^5-[2-methyl-1-(4-methylpiperazin-1-yl)propan-2-yl]-1H-imidazole-4,5-dicarboxamide]
[1]
  IC50: 12 µM
[2]
  IC50: 1.01 µM

## O=C(Nc1ccc(NC(=O)c2nc[nH]c2C(=O)NCCCCN2CCCCC2)cc1)c1ccc(F)cc1 [Example 201, N^4-{4-[(4-fluorobenzoyl)amino]phenyl}-N^5-[4-(piperidin-1-yl)butyl]-1H-imidazole-4,5-dicarboxamide]
[1]
  IC50: 0.03 µM
[2]
  IC50: 4.5 µM

## CN1CCN(C(C)(C)CNC(=O)c2[nH]cnc2C(=O)Nc2ccc(NC(=O)c3ccccc3Cl)cc2)CC1 [Example 202, N^4-{4-[(2-chlorobenzoyl)amino]phenyl}-N^5-[2-methyl-2-(4-methylpiperazin-1-yl)propyl]-1H-imidazole-4,5-dicarboxamide]
[1]
  IC50: 9.8 µM
[2]
  IC50: 1.6 µM

## CN1CCN(CC(C)(C)NC(=O)c2[nH]cnc2C(=O)Nc2ccc(NC(=O)c3ccccc3Cl)cc2)CC1 [Example 203, N^4-{4-[(2-chlorobenzoyl)amino]phenyl}-N^5-[2-methyl-1-(4-methylpiperazin-1-yl)propan-2-yl]-1H-imidazole-4,5-dicarboxamide]
[1]
  IC50: 28 µM
[2]
  IC50: 3.05 µM

## CC1CCCN(CCNC(=O)c2[nH]cnc2C(=O)Nc2ccc(NC(=O)c3ccc(F)cc3)cc2)C1 (centres unmarked) [Example 211, N^4-{4-[(4-fluorobenzoyl)amino]phenyl}-N^5-[2-(3-methylpiperidin-1-yl)ethyl]-1H-imidazole-4,5-dicarboxamide]
[1]
  IC50: 24 µM
[2]
  IC50: 0.77 µM

## O=C(Nc1ccc(NC(=O)c2nc[nH]c2C(=O)NCCCN2CCC(O)CC2)cc1)c1ccc(F)cc1Cl [Example 275, N^4-{4-[(2-chloro-4-fluorobenzoyl)amino]phenyl}-N^5-[3-(4-hydroxypiperidin-1-yl)propyl]-1H-imidazole-4,5-dicarboxamide]
[1]
  IC50: 9.6 µM
[2]
  IC50: 0.47 µM

## O=C(Nc1ccc(NC(=O)c2nc[nH]c2C(=O)NCCCN2CCCC2=O)cc1)c1ccc(F)cc1Cl [Example 299, N^4-{4-[(2-chloro-4-fluorobenzoyl)amino]phenyl}-N^5-[3-(2-oxopyrrolidin-1-yl)-propyl]-1H-imidazole-4,5-dicarboxamide]
[1]
  IC50: 43 µM
[2]
  IC50: 0.74 µM

## CC1CN(CCNC(=O)c2[nH]cnc2C(=O)Nc2ccc(NC(=O)c3ccccc3Cl)cc2)CC(C)O1 (centres unmarked) [Example 300, N^4-{4-[(2-chlorobenzoyl)amino]phenyl}-N^5-[2-(2,6-dimethylmorpholin-4-yl)-ethyl]-1H-imidazole-4,5-dicarboxamide]
[1]
  IC50: 31 µM
[2]
  IC50: 0.56 µM

## CN1CCN(NC(=O)c2[nH]cnc2C(=O)Nc2ccc(NC(=O)c3ccccc3Cl)cc2)CC1 [Example 302, N^4-{4-[(2-chlorobenzoyl)amino]phenyl}-N^5-(4-methylpiperazin-1-yl)-1H-imidazole-4,5-dicarboxamide]
[1]
  IC50: 26 µM
[2]
  IC50: 1.06 µM
